Reference: the OligoGym collection
Only the 19 paired bases of each siRNA are shown; overhangs and chemistry are not given here.

target: PPIB; assay: five studies, different assays; conditions: siRNA
Note: test concentration or dose not given here.

In order of falling target inhibition:
1. sense ACAGCAAAUUCCAUCGUGU / antisense ACACGAUGGAAUUUGCUGU  91.9%
2. sense AGACUUCACCAGGGGAGAU / antisense AUCUCCCCUGGUGAAGUCU  87.6%
3. sense AAUUCCAUCGUGUAAUCAA / antisense UUGAUUACACGAUGGAAUU  87.4%
4. sense ACAGGAGAGAAAGGAUUUG / antisense CAAAUCCUUUCUCUCCUGU  84.9%
5. sense AAGGAUUUGGCUACAAAAA / antisense UUUUUGUAGCCAAAUCCUU  81.9%
6. sense AAUUUUGUGGCCUUAGCUA / antisense UAGCUAAGGCCACAAAAUU  81.3%
7. sense ACAAAAACAGCAAAUUCCA / antisense UGGAAUUUGCUGUUUUUGU  78.5%
8. sense ACAGGAGGAAAGAGCAUCU / antisense AGAUGCUCUUUCCUCCUGU  74.5%
9. sense AACUUCAAACUGAAGCACU / antisense AGUGCUUCAGUUUGAAGUU  69.2%
10. sense AAAGAGCAUCUACGGUGAG / antisense CUCACCGUAGAUGCUCUUU  50.7%
11. sense AAAACAGUGGAUAAUUUUG / antisense CAAAAUUAUCCACUGUUUU  49.5%
12. sense AGAACUUCAAACUGAAGCA / antisense UGCUUCAGUUUGAAGUUCU  45.4%
13. sense ACUUCACCAGGGGAGAUGG / antisense CCAUCUCCCCUGGUGAAGU  41.9%
14. sense AACAGUGGAUAAUUUUGUG / antisense CACAAAAUUAUCCACUGUU  16.3%
15. sense AAAAACAGCAAAUUCCAUC / antisense GAUGGAAUUUGCUGUUUUU  7.6%
16. sense AAACAGCAAAUUCCAUCGU / antisense ACGAUGGAAUUUGCUGUUU  7.3%

target: firefly luciferase; assay: five studies, different assays; conditions: siRNA

In order of rising target inhibition:
1. sense GUUUUGGAGCACGGAAAGA / antisense UCUUUCCGUGCUCCAAAAC  -27.8%
2. sense UUUGUGGACGAAGUACCGA / antisense UCGGUACUUCGUCCACAAA  -18%
3. sense UUUGGAGCACGGAAAGACG / antisense CGUCUUUCCGUGCUCCAAA  -10.4%
4. sense UAAAGAAAGGCCCGGCGCC / antisense GGCGCCGGGCCUUUCUUUA  5.9%
5. sense UGUAAACAAUCCGGAAGCG / antisense CGCUUCCGGAUUGUUUACA  9.91%
6. sense UUCUGAUUACACCCGAGGG / antisense CCCUCGGGUGUAAUCAGAA  10.7%
7. sense GGUGAACUUCCCGCCGCCG / antisense CGGCGGCGGGAAGUUCACC  14.5%
8. sense UGGAAGAUGGAACCGCUGG / antisense CCAGCGGUUCCAUCUUCCA  16.6%
9. sense UAUGCCGGUGUUGGGCGCG / antisense CGCGCCCAACACCGGCAUA  19.7%
10. sense UUGCGCGGAGGAGUUGUGU / antisense ACACAACUCCUCCGCGCAA  24.9%
11. sense GUUGUUGUUUUGGAGCACG / antisense CGUGCUCCAAAACAACAAC  32.6%
12. sense UGUUUGUGGACGAAGUACC / antisense GGUACUUCGUCCACAAACA  35.9%
13. sense UACUACACUCGGAUAUUUG / antisense CAAAUAUCCGAGUGUAGUA  38.6%
14. sense UCCCGCCGCCGUUGUUGUU / antisense AACAACAACGGCGGCGGGA  43.8%
15. sense GUCGCCAGUCAAGUAACAA / antisense UUGUUACUUGACUGGCGAC  44.9%
16. sense UGGAGCACGGAAAGACGAU / antisense AUCGUCUUUCCGUGCUCCA  52.2%
17. sense GUCUUACCGGAAAACUCGA / antisense UCGAGUUUUCCGGUAAGAC  61%
18. sense UGAACUUCCCGCCGCCGUU / antisense AACGGCGGCGGGAAGUUCA  63.3%
19. sense GUCGCUCUGCCUCAUAGAA / antisense UUCUAUGAGGCAGAGCGAC  69.9%
20. sense UGGACGAAGUACCGAAAGG / antisense CCUUUCGGUACUUCGUCCA  70.3%
21. sense UGUGGACGAAGUACCGAAA / antisense UUUCGGUACUUCGUCCACA  77.8%
22. sense GUACCGAAAGGUCUUACCG / antisense CGGUAAGACCUUUCGGUAC  80.4%
23. sense UGUUGUUUUGGAGCACGGA / antisense UCCGUGCUCCAAAACAACA  82.5%
24. sense GUAACAACCGCGAAAAAGU / antisense ACUUUUUCGCGGUUGUUAC  85.5%
25. sense GCGCGGAGGAGUUGUGUUU / antisense AAACACAACUCCUCCGCGC  86.8%
26. sense GGAAAGACGAUGACGGAAA / antisense UUUCCGUCAUCGUCUUUCC  87.6%
27. sense UCAAGUAACAACCGCGAAA / antisense UUUCGCGGUUGUUACUUGA  88.5%
28. sense UGACGGAAAAAGAGAUCGU / antisense ACGAUCUCUUUUUCCGUCA  88.8%
29. sense UUGUUUUGGAGCACGGAAA / antisense UUUCCGUGCUCCAAAACAA  89.2%
30. sense UCCGGAAGCGACCAACGCC / antisense GGCGUUGGUCGCUUCCGGA  89.7%
31. sense GUUGUGUUUGUGGACGAAG / antisense CUUCGUCCACAAACACAAC  90.1%
32. sense UGUGUUUGUGGACGAAGUA / antisense UACUUCGUCCACAAACACA  90.8%
33. sense GGAAAAAGAGAUCGUGGAU / antisense AUCCACGAUCUCUUUUUCC  91.3%
34. sense GUGUUGGGCGCGUUAUUUA / antisense UAAAUAACGCGCCCAACAC  91.9%
35. sense UGAAGUCUCUGAUUAAGUA / antisense UACUUAAUCAGAGACUUCA  91.9%
36. sense UCAGAGAGAUCCUCAUAAA / antisense UUUAUGAGGAUCUCUCUGA  92.1%
37. sense GCGGAGGAGUUGUGUUUGU / antisense ACAAACACAACUCCUCCGC  92.3%
38. sense GGAAAACUCGACGCAAGAA / antisense UUCUUGCGUCGAGUUUUCC  92.7%
39. sense UUACGUCGCCAGUCAAGUA / antisense UACUUGACUGGCGACGUAA  92.9%
40. sense GUUGGCAGAAGCUAUGAAA / antisense UUUCAUAGCUUCUGCCAAC  93.1%
41. sense GGAGGAGUUGUGUUUGUGG / antisense CCACAAACACAACUCCUCC  93.2%
42. sense GGUUUUGGAAUGUUUACUA / antisense UAGUAAACAUUCCAAAACC  93.3%
43. sense GGGCGCGGUCGGUAAAGUU / antisense AACUUUACCGACCGCGCCC  93.6%
44. sense UGGAUUACGUCGCCAGUCA / antisense UGACUGGCGACGUAAUCCA  93.6%
45. sense GGUAAAGUUGUUCCAUUUU / antisense AAAAUGGAACAACUUUACC  94.5%
46. sense UACCGGAAAACUCGACGCA / antisense UGCGUCGAGUUUUCCGGUA  95.9%
47. sense GGAUGGAUGGCUACAUUCU / antisense AGAAUGUAGCCAUCCAUCC  97.4%
48. sense GCUUCGAGCAGACAUGAUA / antisense UAUCAUGUCUGCUCGAAGC  97.7%
